Data set [1] addresses T1, human cathepsin K (Homo sapiens, UniProt P43235).
T1 sequence (P43235 115-329): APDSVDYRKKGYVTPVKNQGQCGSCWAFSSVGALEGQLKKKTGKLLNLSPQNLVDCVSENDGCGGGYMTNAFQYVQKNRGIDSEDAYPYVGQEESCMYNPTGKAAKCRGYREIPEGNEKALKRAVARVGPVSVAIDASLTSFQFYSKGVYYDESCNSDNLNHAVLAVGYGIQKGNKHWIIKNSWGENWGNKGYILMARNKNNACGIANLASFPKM
Nature of the data set: Assay of cathepsin K inhibitory activity in vitro. The data set is classed as biochemical. As to conditions: IC50 against human cathepsin K; substrate Z-Phe-Arg-AMC 10 μM; 25° C.; read-out: Cat-K. How it is done:
Assay Method of Cathepsin K Inhibitory Activity In Vitro
Using 45000-fold diluted cathepsin K solution and 10 μM Z-Phe-Arg-AMC as substrate, the test compound and cathepsin K solution were incubated at 25° C. for 15 min in a 15 μL reaction system according to the optimized experimental condition.

The target of data set [2] is human cathepsin B (Homo sapiens, UniProt P07858). Nature of the data set: Assay of cathepsin B inhibitory activity in vitro. The data set is classed as biochemical. As to conditions: IC50 against human cathepsin B; substrate Z-Phe-Arg-AMC 10 μM; 25° C.; read-out: Cat-B. How it is done: Assay Method of Cathepsin B Inhibitory Activity In Vitro
0.01 ng/μL was the final concentration of Cathepsin B in the enzyme reaction, and Z-Phe-Arg-AMC with the final concentration of 10 μM was added into the reaction system as substrate, in the reaction system the test compound and enzyme had been incubated at 25° C. for 15 min.

Data set [3] addresses human cathepsin L (Homo sapiens, UniProt P07711). Nature of the data set: Assay of cathepsin L inhibitory activity in vitro. The data set is classed as biochemical. The note with it: IC50 against human cathepsin L; substrate Z-Phe-Arg-AMC 10 μM; 25° C.; read-out: Cat-L. How it is done:
Assay Method of Cathepsin L Inhibitory Activity In Vitro
0.01 ng/μL was the final concentration of Cathepsin L in the enzyme reaction, and Z-Phe-Arg-AMC with the final concentration of 10 μM was added into the reaction system as substrate, in the reaction system the test compound and enzyme had been incubated at 25° C. for 15 min.

The target of data set [4] is human cathepsin S (Homo sapiens, UniProt P25774). Nature of the data set: Assay of cathepsin S inhibitory activity in vitro. The data set is classed as biochemical. As to conditions: IC50 against human cathepsin S; substrate Z-VVR-AMC 20 μM; 25° C.; read-out: Cat-S. On the procedure: Assay Method of Cathepsin S Inhibitory Activity In Vitro
0.25 ng/L was the final concentration of Cathepsin S in the enzyme reaction, and Z-VVR-AMC with the final concentration of 20 μM was added into the reaction system as substrate, in the reaction system the test compound and enzyme had been incubated at 25° C. for 15 min.

Data set [5] can be described thus: Pharmacokinetic test in SD rats (iv and oral gavage), plasma by LC/MS/MS. The data set is classed as in vivo. As to conditions: rat, male SD rats; for AUC(0-inf): read-out: AUCINF h * ng/ml; for AUC(0-t): read-out: AUClast h * ng/ml; for half-life: read-out: T1/2 h (converted); for Vd: read-out: Vss; for bioavailability: po 5 mg/kg vs iv 1 mg/kg. How it is done:
Healthy adult male SD rats were divided into groups with administration of compound by intravenous injection and oral gavage.
2. Preparation of the Test Compound Solution:
A certain amount of the test compound was weighed, and then mixed with 5% DMSO, 10% Kolliphor HS15 and 85% Saline to prepare a clarified solution.
3. Administration and Sample Collection:
All groups were fasted for 12 hours before administering, free drinking, and fed at 3 hours after administration. Each group was administered with test compound by vein intravenous (iv, 1 mg/kg) in the hind foot and oral gavage (po, 5 mg/kg) independently. The blood samples were collected from tail vein at the time point of 0 h, 0.083 h, 0.25 h, 0.5 h, 1 h, 2 h, 4 h, 6 h, 8 h and 24 h after administration and the amount of blood sample collected at each time point was about 200-400 μL. The blood samples collected at each time point were independently placed in K2EDTA anticoagulation tube and preserved in the incubator containing ice packs. The plasma of each blood sample above was separated by centrifugation at 4600 r/min at 4° C. for 5 min in 15 minutes after collecting. The plasma samples were preserved at −80° C. for measuring.
The content of the compound in plasma of rat after administration was determined by LC/MS/MS method.

Molecules are shown by their SMILES. Where two headings read alike, the source gives them in different places.

human cathepsin S, sequence (P25774 115-331): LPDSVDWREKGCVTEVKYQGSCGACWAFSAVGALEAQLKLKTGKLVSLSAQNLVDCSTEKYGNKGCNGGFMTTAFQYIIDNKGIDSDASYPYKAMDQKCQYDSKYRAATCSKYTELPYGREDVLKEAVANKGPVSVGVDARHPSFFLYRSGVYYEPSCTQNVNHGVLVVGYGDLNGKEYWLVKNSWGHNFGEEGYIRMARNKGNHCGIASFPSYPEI
human cathepsin L, sequence (P07711 114-333): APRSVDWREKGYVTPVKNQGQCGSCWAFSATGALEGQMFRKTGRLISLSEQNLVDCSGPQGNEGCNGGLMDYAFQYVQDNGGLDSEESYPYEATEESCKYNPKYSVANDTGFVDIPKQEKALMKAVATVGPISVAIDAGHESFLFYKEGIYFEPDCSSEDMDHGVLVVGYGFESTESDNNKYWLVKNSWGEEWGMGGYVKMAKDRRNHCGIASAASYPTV

As to `Cc1cc(-c2ccc3cc(C(=O)NC4(C(=O)NC5(C#N)CC5)CCC(F)(F)CC4)oc3c2)ccc1-n1cncn1` [Example 43, N-(1-((1-cyanocyclopropyl)carbamoyl)-4,4-difluorocyclohexyl)-6-(3-methyl-4-(1H-1,2,4-triazol-1-yl)phenyl)benzofuran-2-carboxamide], the IC50 in data set [1] was 0.69 nM. Further, in data set [2], the IC50 turned out to be 440 nM. The IC50 in data set [3] was > 10 µM. Besides, the IC50 in data set [4] is 1340 nM. Moreover, in data set [5] (iv 1 mg/kg), the Cmax was found to be 382 ng/mL, the Tmax was 0.78 h, the clearance came to 4.13 mL/min/kg and the AUC(0-inf) was determined as 4190 ng·h/mL. In data set [5] (iv 1 mg/kg), the AUC(0-t) came to 3800 ng·h/mL, the half-life is 426 min and the Vd came to 2.27 L/kg. Besides, in data set [5] (po 5 mg/kg), the Cmax came out at 390 ng/mL, the Tmax was 4 h, the AUC(0-inf) was 15200 ng·h/mL and the AUC(0-t) turned out to be 14300 ng·h/mL. The half-life in data set [5] (po 5 mg/kg) was 350 min. This molecule also had a bioavailability in data set [5] of 72.1%.
For `CCOc1cc(-c2ccc3cc(C(=O)NC4(C(=O)NC5(C#N)CC5)CCC(F)(F)CC4)oc3c2)ccc1-n1cncn1` [Example 54, N-(1-((1-cyanocyclopropyl)carbamoyl)-4,4-difluorocyclohexyl)-6-(3-ethoxy-4-(1H-1,2,4-triazol-1-yl)phenyl)benzofuran-2-carboxamide], the IC50 in data set [1] was 1.3 nM. Besides, in data set [2], the IC50 was 5000 nM. Further, the IC50 in data set [3] was > 10 µM. Moreover, in data set [4], the IC50 is > 10000 nM. In addition, in data set [5] (iv 1 mg/kg), the Cmax amounted to 1240 ng/mL, the Tmax came to 0.33 h, the clearance is 1.73 mL/min/kg and the AUC(0-inf) is 9700 ng·h/mL. In addition, in data set [5] (iv 1 mg/kg), the AUC(0-t) stood at 9280 ng·h/mL, the half-life is 335 min and the Vd was 0.69 L/kg. Besides, in data set [5] (po 5 mg/kg), the Cmax came out at 2260 ng/mL, the Tmax came to 3 h, the AUC(0-inf) was found to be 22700 ng·h/mL and the AUC(0-t) stood at 21900 ng·h/mL. Also, in data set [5] (po 5 mg/kg), the half-life is 304 min. The molecule further showed a bioavailability in data set [5] of 46.9%.
As to `N#CC1(NC(=O)C2(NC(=O)c3cc4ccc(-c5ccc(-n6ccnn6)cc5)cc4o3)CCC(F)(F)CC2)CC1` [Example 18, 6-(4-(1H-1,2,3-triazol-1-yl)phenyl)-N-(1-((1-cyanocyclopropyl)carbamoyl)-4,4-difluorocyclohexyl)benzofuran-2-carboxamide], the IC50 in data set [1] was 2.2 nM. In addition, in data set [2], the IC50 amounted to 806 nM. For the same molecule, the IC50 in data set [3] was > 10 µM. In addition, in data set [4], the IC50 is 2800 nM. Besides, in data set [5] (iv 1 mg/kg), the Cmax is 500 ng/mL, the Tmax was 0.083 h, the clearance worked out at 5.14 mL/min/kg and the AUC(0-inf) came out at 3320 ng·h/mL. In data set [5] (iv 1 mg/kg), the AUC(0-t) turned out to be 3210 ng·h/mL, the half-life was 283 min and the Vd came to 1.92 L/kg. In data set [5] (po 5 mg/kg), the peak level (Cmax) was 1380 ng/mL, the Tmax came out at 3.33 h, the AUC(0-inf) was found to be 19900 ng·h/mL and the AUC(0-t) is 18600 ng·h/mL. Moreover, in data set [5] (po 5 mg/kg), the half-life was 339 min. In data set [5], this molecule gave a bioavailability of 98.6%.
In the case of `N#CC1(NC(=O)C2(NC(=O)c3cc4ccc(-c5ccc(-n6cncn6)cc5)cc4o3)CCC(F)(F)CC2)CC1` [Example 12, 6-(4-(1H-1,2,4-triazol-1-yl)phenyl)-N-(1-((1-cyanocyclopropyl)carbamoyl)-4,4-difluorocyclohexyl)benzofuran-2-carboxamide], the IC50 in data set [1] turned out to be 1.8 nM. In addition, in data set [2], the IC50 was 1400 nM. For the same molecule, the IC50 in data set [3] is > 10 µM. Further, the IC50 in data set [4] worked out at 2500 nM. In data set [5] (iv 1 mg/kg), the highest level (Cmax) was 1110 ng/mL, the Tmax was 0.08 h, the clearance worked out at 1.8 mL/min/kg and the AUC(0-inf) was 9230 ng·h/mL. Further, in data set [5] (iv 1 mg/kg), the AUC(0-t) was 8150 ng·h/mL, the half-life was 470 min and the Vd was determined as 1.09 L/kg. In data set [5] (po 5 mg/kg), the Cmax was determined as 1890 ng/mL, the Tmax came out at 4.67 h, the AUC(0-inf) amounted to 28400 ng·h/mL and the AUC(0-t) was determined as 25100 ng·h/mL. Besides, the half-life in data set [5] (po 5 mg/kg) is 368 min. This molecule also yielded a bioavailability in data set [5] of 60.6%.
`N#CC1(NC(=O)C2(NC(=O)c3cc4ccc(-c5ccc(C(O)C(F)F)cc5)cc4o3)CCCCC2)CC1` (stereo not shown) [Example 7, N-(1-((1-cyanocyclopropyl)carbamoyl)cyclohexyl)-6-(4-(2,2-difluoro-1-hydroxyethyl)phenyl)benzofuran-2-carboxamide]: the IC50 is 0.62 nM in data set [1], 103 nM in data set [2], > 10 µM in data set [3] and 2100 nM in data set [4].
In the case of `N#CC1(NC(=O)C2(NC(=O)c3cc4ccc(-c5ccc(C6(O)CCC6)cc5)cc4o3)CCCCC2)CC1` [Example 9, N-(1-((1-cyanocyclopropyl)carbamoyl)cyclohexyl)-6-(4-(1-hydroxycyclobutyl)phenyl)benzofuran-2-carboxamide], the IC50 in data set [1] was 2.7 nM; in data set [2], 410 nM; in data set [3] it was > 10 µM; in data set [4], 3500 nM.
Take `N#CC1(NC(=O)C2(NC(=O)c3cc4ccc(-c5csc(N6CCOC6=O)n5)cc4o3)CCCCC2)CC1` [Example 68]: the IC50 in data set [1] is 0.79 nM; in data set [2] it was 360 nM; in data set [3], > 10 µM; in data set [4], 4080 nM.
Take `N#CC1(NC(=O)C2(NC(=O)c3cc4ccc(-c5ccc(C6(O)CCOCC6)cc5)cc4o3)CCCCC2)CC1` [Example 75]: the IC50 was 1.83 nM in data set [1], 490 nM in data set [2], > 10 µM in data set [3] and 4100 nM in data set [4].
`CS(=O)(=O)c1ccc(-c2ccc3cc(C(=O)NC4(C(=O)NC5(C#N)CC5)CCCCC4)oc3n2)cc1` [Example 82]: the IC50 in data set [1] was 2.7 nM; in data set [2], 200 nM; in data set [3], > 10 µM; in data set [4], 1500 nM.
For `CS(=O)(=O)c1ccc(-c2ccc3cc(C(=O)NC4(C(=O)NC5(C#N)CC5)CCCCC4)oc3c2)c(F)c1` [Example 5, N-(1-((1-cyanocyclopropyl)carbamoyl)cyclohexyl)-6-(2-fluoro-4-(methylsulfonyl)phenyl)benzofuran-2-carboxamide] the same measures were 1.1 nM, 78 nM, > 10 µM and 1600 nM.
The like results for `N#CC1(NC(=O)C2(NC(=O)c3cc4ccc(-c5ccc(N6CCNC6=O)cc5)cc4o3)CCC(F)(F)CC2)CC1` [Example 88] were, in that order, 5.4 nM, 800 nM, > 10 µM and 2900 nM.
Regarding `N#CC1(NC(=O)C2(NC(=O)c3cc4ccc(-c5ccc(C6(O)COC6)cc5)cc4o3)CCCCC2)CC1` [Example 72], the IC50 in data set [1] was 0.5 nM; in data set [2], 727 nM; in data set [3], > 10 µM; in data set [4] it was > 10000 nM.

These data come from patent US10494364B2, “Cathepsin K inhibitors and application thereof” (SUNSHINE LAKE PHARMA CO., LTD., priority 2015, dated 2019).
